Measurements as given in patent US20220317138A1, “METHODS FOR DETERMINING THE CONCENTRATION OF A CARBAPENEM ANTIBIOTIC IN A BIOLOGICAL SAMPLE” (priority 2019, published 2022).
Like-named read-outs stand apart in the source and are kept apart here. Numbered stars: 1 amine (or outer) side, 2 acyl side, 3 side chain; on linkers, the order of the positions; unused ones are H or OH. Bridge positions count the residues as written; N and C are the ends. Square brackets hold non-standard residues; d marks the D form. Peptide text beside a SMILES is read from it. * marks the point of attachment. pTerphenylCO(4''-OnC5H11) = CCCCCOc1ccc(-c2ccc(-c3ccc(C(=O)*)cc3)cc2)cc1; Orn(4R-OH,5R-OH) = O=C([C@H](C[C@@H](O)[C@@H](O)N[*:3])N[*:1])[*:2]; hTyr(3S-OH,4S-OH) = N[C@H](C(=O)O)[C@H](O)[C@@H](O)c1ccc(O)cc1; Pro(3S-OH,4S-Me) = C[C@H]1CN[C@H](C(=O)O)[C@H]1O; Hyp = O=C(O)[C@@H]1C[C@@H](O)CN1

Target: beta-lactamase class D OXA-48 (Klebsiella pneumoniae, UniProt Q6XEC0)
Assay type: biochemical
Settings: for Average [meropenem]: average of three replicates
[1] = second drug alone in ultrafiltrated serum at 10 times recommended blood concentration, […]
[2] = second drug alone in ultrafiltrated serum at 10 times recommended blood concentration, result expressed as meropenem concentration, theoretically zero
[3] = second drug alone in ultrafiltrated serum at 10 times recommended blood concentration, result expressed as meropenem concentration, theoretically zero, replicate 1
[4] = second drug alone in ultrafiltrated serum at 10 times recommended blood concentration, result expressed as meropenem concentration, theoretically zero, replicate 2
[5] = second drug alone in ultrafiltrated serum at 10 times recommended blood concentration, result expressed as meropenem concentration, theoretically zero, replicate 3

Row | Molecule | [meropenem] (mg/L) Replicates 1 | [meropenem] (mg/L) Replicates 2 | [meropenem] (mg/L) Replicates 3 | Average [meropenem] [1] | Average [meropenem] [2] | [meropenem] (mg/L) Replicates 1 [3] | [meropenem] (mg/L) Replicates 2 [4] | [meropenem] (mg/L) Replicates 3 [5] | interference with the method
1 | C=CC[C@@H]1/C=C(\C)C[C@H](C)C[C@H](OC)[C@H]2O[C@@](O)(C(=O)C(=O)N3CCCC[C@H]3C(=O)O[C@H](/C(C)=C/[C@@H]3CC[C@@H](O)[C@H](OC)C3)[C@H](C)[C@@H](O)CC1=O)[C@H](C)C[C@@H]2OC.O [Prograft] | -0.07 mg/L | -0.06 mg/L | -0.02 mg/L | -0.05 mg/L |  |  |  |  | 
2 | Cc1ncc2n1-c1ccc(Cl)cc1C(c1ccccc1F)=NC2 [Midazolam Braun] | -0.07 mg/L | -0.09 mg/L | -0.06 mg/L | -0.07 mg/L |  |  |  |  | 
3 | CC(CCc1ccc(O)cc1)NCCc1ccc(O)c(O)c1 (stereo not drawn) [Dobutrex] |  |  |  |  | -0.11 mg/L | -0.07 mg/L | -0.11 mg/L | -0.14 mg/L | 
4 | COc1ccnc(C[S+]([O-])c2nc3cc(OC(F)F)ccc3[nH]2)c1OC (stereo not drawn) [Pantomed] | 0.02 mg/L | 0.01 mg/L | -0.05 mg/L | -0.01 mg/L |  |  |  |  | 
5 | C[C@]12CCC(=O)C=C1CC[C@@H]1[C@@H]2[C@@H](O)C[C@@]2(C)[C@H]1CC[C@]2(O)C(=O)COC(=O)CCC(=O)O [Solu-cortef] |  |  |  |  | -0.03 mg/L | -0.10 mg/L | 0.02 mg/L | 0.00 mg/L | 
6 | NCCc1ccc(O)c(O)c1 [Dopamine] |  |  |  |  | -0.06 mg/L | -0.05 mg/L | -0.06 mg/L | -0.07 mg/L | 
7 | protamine | 0.64 mg/L | 0.69 mg/L | 0.72 mg/L | 0.68 mg/L |  |  |  |  | excepted for protamine
8 | OC(Cn1cncn1)(Cn1cncn1)c1ccc(F)cc1F [Fluconazole] |  |  |  |  | 0.07 mg/L | 0.02 mg/L | 0.10 mg/L | 0.11 mg/L | 
9 | CCCCCOc1ccc(-c2ccc(-c3ccc(C(=O)N[C@H]4C[C@@H](O)[C@@H](O)NC(=O)[C@@H]5[C@@H](O)[C@@H](C)CN5C(=O)[C@H]([C@@H](C)O)NC(=O)[C@H]([C@H](O)[C@@H](O)c5ccc(O)cc5)NC(=O)[C@@H]5C[C@@H](O)CN5C(=O)[C@H]([C@@H](C)O)NC4=O)cc3)cc2)cc1 [Anidulafungin] ({pTerphenylCO(4''-OnC5H11)}-[Orn(4R-OH,5R-OH)]T[Hyp][hTyr(3S-OH,4S-OH)]T[Pro(3S-OH,4S-Me)]; lactam 1-C) | 0.09 mg/L | 0.06 mg/L | 0.14 mg/L | 0.10 mg/L |  |  |  |  | 
10 | CC[C@H](C)C[C@H](C)CCCCCCCCC(=O)N[C@H]1C[C@@H](O)[C@@H](NCCN)NC(=O)[C@@H]2[C@@H](O)CCN2C(=O)[C@H]([C@H](O)CCN)NC(=O)[C@H]([C@H](O)[C@@H](O)c2ccc(O)cc2)NC(=O)[C@@H]2C[C@@H](O)CN2C(=O)[C@H]([C@@H](C)O)NC1=O [Caspofungin] | 0.03 mg/L | 0.06 mg/L | 0.07 mg/L | 0.05 mg/L |  |  |  |  | 
11 | O=C1NC(=O)C(c2ccccc2)(c2ccccc2)N1 [Diphantoïne] | -0.15 mg/L | -0.11 mg/L | 0.02 mg/L | -0.08 mg/L |  |  |  |  | 
12 | CCCCc1oc2ccccc2c1C(=O)c1cc(I)c(OCCN(CC)CC)c(I)c1 [Cordarone] |  |  |  |  | -0.16 mg/L | -0.16 mg/L | -0.15 mg/L | -0.18 mg/L | 
13 | COC(=O)C1=C(C)NC(C)=C(C(=O)OCCN(C)Cc2ccccc2)C1c1cccc([N+](=O)[O-])c1 (stereo not drawn) [Rydene] |  |  |  |  | 0.04 mg/L | 0.06 mg/L | 0.00 mg/L | 0.06 mg/L | 
14 | COc1ccc(C[C@@H]2c3cc(OC)c(OC)cc3CC[N@+]2(C)CCC(=O)OCCCCCOC(=O)CC[N@@+]2(C)CCc3cc(OC)c(OC)cc3[C@H]2Cc2ccc(OC)c(OC)c2)cc1OC [Nimbex] |  |  |  |  | -0.03 mg/L | 0.01 mg/L | -0.04 mg/L | -0.08 mg/L | 
15 | Actrapid | 0.04 mg/L | 0.04 mg/L | 0.06 mg/L | 0.05 mg/L |  |  |  |  | 
16 | CC[C@@H](C(N)=O)N1CCCC1=O [Keppra] |  |  |  |  | -0.07 mg/L | -0.07 mg/L | -0.07 mg/L | -0.06 mg/L | 
17 | CCCC(CCC)C(=O)[O-].[Na+] [Dapakine] | -0.10 mg/L | -0.10 mg/L | -0.09 mg/L | -0.09 mg/L |  |  |  |  | 
18 | CN1C(=O)CN=C(c2ccccc2)c2cc(Cl)ccc21 [Diazepam] |  |  |  |  | 0.03 mg/L | 0.05 mg/L | 0.04 mg/L | 0.01 mg/L | 
19 | CCC1(CC)C(=O)NC(=S)NC1=O [Thiobarbital] |  |  |  |  | 0.10 mg/L | 0.12 mg/L | 0.11 mg/L | 0.09 mg/L | 
20 | CC(C)(C)NCC(O)c1ccc(O)c(CO)c1 (stereo not drawn) [Salbutamol] |  |  |  |  | 0.09 mg/L | 0.16 mg/L | 0.07 mg/L | 0.05 mg/L | 
21 | C[C@@H](c1ncncc1F)[C@](O)(Cn1cncn1)c1ccc(F)cc1F [Voriconazole] |  |  |  |  | 0.01 mg/L | 0.00 mg/L | -0.06 mg/L | 0.10 mg/L | 
22 | NS(=O)(=O)c1cc(C(=O)O)c(NCc2ccco2)cc1Cl [Lasix] |  |  |  |  | -0.12 mg/L | -0.13 mg/L | -0.15 mg/L | -0.09 mg/L | 
23 | CNCC(O)c1ccc(O)c(O)c1 (stereo not drawn) [Adrenaline] |  |  |  |  | -0.10 mg/L | 0.06 mg/L | -0.37 mg/L | 0.00 mg/L | 
24 | CN1CC[C@]23c4c5ccc(O)c4O[C@H]2[C@@H](O)C=C[C@H]3[C@H]1C5 [Morphine] |  |  |  |  | -0.13 mg/L | -0.12 mg/L | -0.15 mg/L | -0.10 mg/L | 
25 | NC[C@H](O)c1ccc(O)c(O)c1 [Noradrenaline] |  |  |  |  | -0.11 mg/L | -0.12 mg/L | -0.12 mg/L | -0.08 mg/L | 
26 | [Ca+2].[Cl-].[Cl-] [Calciclo] | 0.05 mg/L | -0.04 mg/L | -0.09 mg/L | -0.03 mg/L |  |  |  |  | 
27 | C[C@H]1C[C@@H]2[C@H]([C@@H](O)C[C@@]3(C)[C@H]2CC[C@]3(O)C(=O)COC(=O)CCC(=O)O)[C@@]2(C)C=CC(=O)C=C12 [Solu-Medrol] |  |  |  |  | 0.01 mg/L | -0.01 mg/L | 0.02 mg/L | 0.01 mg/L | 
28 | Cc1[nH]c(=O)c(C#N)cc1-c1ccncc1 [Milrinone] |  |  |  |  | 0.09 mg/L | 0.14 mg/L | 0.06 mg/L | 0.06 mg/L | 
29 | O=C1CN=C(c2ccccc2Cl)c2cc([N+](=O)[O-])ccc2N1 [Clonazepam] |  |  |  |  | 0.05 mg/L | 0.06 mg/L | 0.06 mg/L | 0.01 mg/L | 
